From US20260272878A1, “ADAR1 INHIBITORS AND USES THEREOF” (THE WISTAR INSTITUTE OF ANATOMY AND BIOLOGY, priority 2023, published 2026)

Key:
ADAR = ADAR (Homo sapiens, UniProt P55265); details: literature study; cited from earlier work
ADAR1p110-WT = biological target: T1, ADAR1p110-WT (Homo sapiens, UniProt P55265); experiment: Biacore SPR binding to ADAR1p110-WT
T1 construct: made in house; host or cells: Sf9 cells (baculovirus)
T1 sequence (P55265 1-931 isoform P55265-5): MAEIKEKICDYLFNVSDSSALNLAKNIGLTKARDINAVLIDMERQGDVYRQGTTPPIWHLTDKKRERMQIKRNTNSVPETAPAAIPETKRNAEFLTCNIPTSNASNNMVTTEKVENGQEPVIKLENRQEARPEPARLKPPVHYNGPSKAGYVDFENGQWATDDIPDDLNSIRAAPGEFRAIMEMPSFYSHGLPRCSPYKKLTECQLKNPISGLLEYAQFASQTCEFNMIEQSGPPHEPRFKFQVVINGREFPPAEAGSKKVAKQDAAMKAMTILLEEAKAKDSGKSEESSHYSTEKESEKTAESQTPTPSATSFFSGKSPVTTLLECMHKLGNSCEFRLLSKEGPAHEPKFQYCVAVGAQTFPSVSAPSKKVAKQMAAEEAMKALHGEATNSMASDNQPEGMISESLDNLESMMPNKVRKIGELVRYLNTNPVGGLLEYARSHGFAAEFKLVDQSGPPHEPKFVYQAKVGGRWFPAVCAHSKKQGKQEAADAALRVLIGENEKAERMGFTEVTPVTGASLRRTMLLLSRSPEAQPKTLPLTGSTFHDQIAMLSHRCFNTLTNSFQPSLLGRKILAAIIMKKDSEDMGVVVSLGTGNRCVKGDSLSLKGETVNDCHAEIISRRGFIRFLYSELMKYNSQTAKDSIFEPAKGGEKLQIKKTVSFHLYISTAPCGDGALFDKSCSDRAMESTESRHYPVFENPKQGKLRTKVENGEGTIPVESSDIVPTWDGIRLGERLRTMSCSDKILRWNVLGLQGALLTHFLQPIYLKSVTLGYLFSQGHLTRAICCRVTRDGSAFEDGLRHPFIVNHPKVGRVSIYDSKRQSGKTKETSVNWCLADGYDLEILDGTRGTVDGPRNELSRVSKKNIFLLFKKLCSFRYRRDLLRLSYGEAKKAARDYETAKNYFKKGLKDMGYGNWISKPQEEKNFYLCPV
Source text: FIGS. 5A-5D show Biacore SPR analysis for binding of ADAR1i to ADAR1p110. (FIG. 5A) SPR analysis for binding kinetics of 8 compounds to ADAR1p110-WT. ADAR1 inhibition positive (ADAR1i-13, ADAR1i-120, ADAR1i-124) and negative compounds. (FIG. 5B, FIG. 5C) […] of SPR analysis for binding of ADAR1i-13 and ADAR1i-124 to ADAR1p110-WT and ADAR1p110-E912A as well as negative control proteins, GAPDH and HuR, are shown. […] ADAR1-E912, equivalent of ADAR2 E396, is located in the catalytic center.
No complete 3-D structure of ADAR1 is currently available. […] The glutamate E912 and E396 in ADAR1 and ADAR2, respectively, plays an important proton transfer function during hydrolytic deamination reaction (42, 43).

HeLa-Nluc-edit cells = experiment: First screen: FFL activity (cell viability/apoptosis) in reporter HeLa cells; details: FIG. 2C

ADAR, sequence (P55265 whole entry, species assumed): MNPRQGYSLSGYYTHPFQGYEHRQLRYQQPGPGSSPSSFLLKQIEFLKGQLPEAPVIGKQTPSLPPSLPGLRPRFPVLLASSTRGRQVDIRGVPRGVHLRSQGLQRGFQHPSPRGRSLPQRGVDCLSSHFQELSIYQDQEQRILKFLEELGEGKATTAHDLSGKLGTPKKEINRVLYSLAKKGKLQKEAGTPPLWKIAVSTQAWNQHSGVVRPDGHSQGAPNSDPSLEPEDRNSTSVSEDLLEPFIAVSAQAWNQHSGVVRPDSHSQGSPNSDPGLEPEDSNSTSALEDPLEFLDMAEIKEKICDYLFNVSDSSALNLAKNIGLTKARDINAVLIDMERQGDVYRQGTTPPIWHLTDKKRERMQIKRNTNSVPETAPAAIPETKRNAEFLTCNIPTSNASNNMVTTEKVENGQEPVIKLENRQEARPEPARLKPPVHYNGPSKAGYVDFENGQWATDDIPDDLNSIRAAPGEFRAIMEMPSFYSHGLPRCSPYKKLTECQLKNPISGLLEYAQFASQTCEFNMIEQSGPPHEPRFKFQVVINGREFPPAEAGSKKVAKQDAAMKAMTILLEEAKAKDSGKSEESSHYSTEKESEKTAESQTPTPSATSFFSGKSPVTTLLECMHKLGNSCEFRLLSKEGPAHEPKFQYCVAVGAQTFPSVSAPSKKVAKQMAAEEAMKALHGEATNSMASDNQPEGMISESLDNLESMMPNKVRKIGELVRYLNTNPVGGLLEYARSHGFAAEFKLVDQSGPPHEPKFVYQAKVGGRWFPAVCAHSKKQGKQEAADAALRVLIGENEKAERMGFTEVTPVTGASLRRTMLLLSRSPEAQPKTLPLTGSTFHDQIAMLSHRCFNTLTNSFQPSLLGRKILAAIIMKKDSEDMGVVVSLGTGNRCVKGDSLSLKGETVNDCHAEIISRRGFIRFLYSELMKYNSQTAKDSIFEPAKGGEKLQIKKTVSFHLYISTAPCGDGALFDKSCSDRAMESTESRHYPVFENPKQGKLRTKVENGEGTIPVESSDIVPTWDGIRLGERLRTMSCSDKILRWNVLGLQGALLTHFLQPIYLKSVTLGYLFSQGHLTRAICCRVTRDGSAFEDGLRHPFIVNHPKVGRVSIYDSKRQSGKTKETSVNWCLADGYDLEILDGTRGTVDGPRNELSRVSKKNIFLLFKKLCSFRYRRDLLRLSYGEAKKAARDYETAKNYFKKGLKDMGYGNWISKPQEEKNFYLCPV

Nc1ncnc2c1nnn2[C@@H]1O[C@H](CO)[C@@H](O)[C@H]1O [8-azaadenosine]
ADAR inhibition (ADAR): not ADAR inhibitors

Nc1ncnc2c1nc(Cl)n2[C@@H]1O[C@H](CO)[C@@H](O)[C@H]1O [8-chloroadenosine]
ADAR inhibition (ADAR): not ADAR inhibitors

N#Cc1ccc(NC(=O)c2nc3ccccc3[nH]2)cc1 [ADAR1i-122]
Binding to ADAR1p110-WT (ADAR1p110-WT): did not bind

N#Cc1ccc(NC(=O)c2nc3c(N)ncnc3[nH]2)cc1 [ADAR1i-123]
Binding to ADAR1p110-WT (ADAR1p110-WT): did not bind

N#Cc1ccc(NC(=O)c2cc3ccccc3s2)cc1 [ADAR1i-125]
Binding to ADAR1p110-WT (ADAR1p110-WT): did not bind

N#Cc1ccc(NC(=O)c2[nH]c3ccccc3c2Cl)cc1 [ADAR1i-126]
Binding to ADAR1p110-WT (ADAR1p110-WT): did not bind

COc1cccc2c1C(=O)c1c(O)c3c(c(O)c1C2=O)C[C@@](O)(C(=O)CO)C[C@@H]3O[C@H]1C[C@H](N)[C@H](O)[C@H](C)O1 [Doxorubicin]
Acute apoptosis detected by reduction of FFL activity (HeLa-Nluc-edit cells): induces acute apoptosis
